# Measured values as given in PMC4417724 (Nature, 2014).
# Assays:
# [1] = biological target: FLAG-RTCB (human tRNA ligase complex) with recombinant Archease (Homo sapiens, UniProt Q9Y3I0); assay: radiolabelled guanylation, SDS-PAGE autoradiography; type: biochemical; settings: covalent RTCB-guanylate intermediate; labelled compound; Archease 10 μM, ATP, Mg(OAc)2, pH 7.5, 37 °C
# [2] = biological target: recombinant hexahistidine tagged human Archease (human); assay: SPR
# FLAG-RTCB (human tRNA ligase complex) with recombinant Archease, sequence (Q9Y3I0 whole entry): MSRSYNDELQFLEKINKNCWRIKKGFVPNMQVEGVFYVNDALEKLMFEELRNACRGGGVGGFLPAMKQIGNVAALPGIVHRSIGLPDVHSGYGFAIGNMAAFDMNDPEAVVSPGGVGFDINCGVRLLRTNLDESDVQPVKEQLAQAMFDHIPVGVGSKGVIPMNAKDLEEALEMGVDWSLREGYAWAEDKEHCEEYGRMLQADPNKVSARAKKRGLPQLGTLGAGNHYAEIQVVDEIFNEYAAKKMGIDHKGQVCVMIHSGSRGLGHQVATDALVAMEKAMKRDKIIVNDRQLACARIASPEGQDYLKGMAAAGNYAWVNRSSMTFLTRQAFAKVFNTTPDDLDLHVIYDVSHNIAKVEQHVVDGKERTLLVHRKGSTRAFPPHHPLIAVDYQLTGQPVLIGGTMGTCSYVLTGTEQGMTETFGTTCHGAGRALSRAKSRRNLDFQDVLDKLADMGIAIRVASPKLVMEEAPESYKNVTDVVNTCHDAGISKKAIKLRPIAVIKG
# FLAG-RTCB (human tRNA ligase complex) with recombinant Archease, sequence (Q8IWT0 2-167 partner): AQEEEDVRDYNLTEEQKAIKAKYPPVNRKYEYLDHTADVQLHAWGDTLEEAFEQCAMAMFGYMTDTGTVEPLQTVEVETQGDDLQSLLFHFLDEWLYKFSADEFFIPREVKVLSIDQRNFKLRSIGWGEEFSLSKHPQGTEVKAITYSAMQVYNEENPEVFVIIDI
# FLAG-RTCB (human tRNA ligase complex) with recombinant Archease, sequence (Q92499 whole entry partner): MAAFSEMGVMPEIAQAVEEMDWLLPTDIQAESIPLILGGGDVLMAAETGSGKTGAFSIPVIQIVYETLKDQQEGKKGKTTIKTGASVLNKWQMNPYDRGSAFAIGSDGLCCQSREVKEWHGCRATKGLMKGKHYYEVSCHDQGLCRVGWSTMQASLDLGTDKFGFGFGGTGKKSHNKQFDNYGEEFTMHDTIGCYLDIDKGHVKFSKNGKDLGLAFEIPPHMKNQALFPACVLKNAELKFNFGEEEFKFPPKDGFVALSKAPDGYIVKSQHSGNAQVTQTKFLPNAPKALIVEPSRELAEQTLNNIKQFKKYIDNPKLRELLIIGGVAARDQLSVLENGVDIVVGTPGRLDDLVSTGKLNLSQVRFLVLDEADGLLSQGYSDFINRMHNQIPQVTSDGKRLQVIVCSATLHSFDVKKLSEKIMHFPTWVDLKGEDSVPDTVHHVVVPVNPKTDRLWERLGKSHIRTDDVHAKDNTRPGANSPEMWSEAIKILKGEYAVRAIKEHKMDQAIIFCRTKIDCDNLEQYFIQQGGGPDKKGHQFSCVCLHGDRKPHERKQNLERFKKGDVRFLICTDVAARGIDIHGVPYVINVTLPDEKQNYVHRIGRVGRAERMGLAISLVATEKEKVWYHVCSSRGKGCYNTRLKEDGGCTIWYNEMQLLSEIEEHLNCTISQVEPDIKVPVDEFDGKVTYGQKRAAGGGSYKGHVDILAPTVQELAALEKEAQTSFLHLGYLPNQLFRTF
# FLAG-RTCB (human tRNA ligase complex) with recombinant Archease, sequence (Q52LJ0 whole entry partner): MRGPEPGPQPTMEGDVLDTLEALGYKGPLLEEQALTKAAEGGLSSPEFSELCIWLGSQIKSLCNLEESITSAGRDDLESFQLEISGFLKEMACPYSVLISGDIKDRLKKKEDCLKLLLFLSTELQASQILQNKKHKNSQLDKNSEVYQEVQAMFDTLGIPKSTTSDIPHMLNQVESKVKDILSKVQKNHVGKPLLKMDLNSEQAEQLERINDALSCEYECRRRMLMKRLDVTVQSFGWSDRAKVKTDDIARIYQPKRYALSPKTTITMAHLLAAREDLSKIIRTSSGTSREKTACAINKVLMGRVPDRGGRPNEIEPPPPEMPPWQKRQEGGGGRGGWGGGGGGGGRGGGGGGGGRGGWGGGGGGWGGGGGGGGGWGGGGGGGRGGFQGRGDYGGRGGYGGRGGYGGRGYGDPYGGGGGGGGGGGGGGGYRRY
# FLAG-RTCB (human tRNA ligase complex) with recombinant Archease, sequence (Q9BVC5 whole entry partner): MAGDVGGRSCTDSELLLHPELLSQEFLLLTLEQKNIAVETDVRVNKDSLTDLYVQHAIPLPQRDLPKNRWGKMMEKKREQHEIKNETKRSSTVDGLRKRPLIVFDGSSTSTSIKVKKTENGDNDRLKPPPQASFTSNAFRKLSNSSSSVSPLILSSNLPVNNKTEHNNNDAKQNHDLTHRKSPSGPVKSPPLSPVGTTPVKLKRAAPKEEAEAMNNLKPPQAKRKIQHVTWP
# FLAG-RTCB (human tRNA ligase complex) with recombinant Archease, sequence (Q9Y224 whole entry partner): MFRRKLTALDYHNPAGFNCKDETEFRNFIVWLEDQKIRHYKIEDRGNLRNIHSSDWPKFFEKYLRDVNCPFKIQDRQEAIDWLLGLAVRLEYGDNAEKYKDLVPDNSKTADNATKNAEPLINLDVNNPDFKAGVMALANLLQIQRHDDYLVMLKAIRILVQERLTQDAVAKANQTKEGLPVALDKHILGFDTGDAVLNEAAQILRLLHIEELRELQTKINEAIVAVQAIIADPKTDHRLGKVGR
Compound,"radiolabelled guanylation, SDS-PAGE autoradiography [1]",Kd [2] [nM]
Nc1nc2c(ncn2[C@@H]2O[C@H](COP(=O)(O)OP(=O)(O)OP(=O)(O)O)[C@@H](O)[C@H]2O)c(=O)[nH]1 [GTP],Formation of a radiolabeled band corresponding to guanylated human FLAG-RTCB required the addition of WT Archease,–
FLAG-RTCB complexes (human tRNA ligase complex affinity-purified by FLAG-RTCB) (from UniProt Q9Y3I0;Q92499;Q52LJ0;Q9Y224;Q9BVC5),–,1.8
